ChEMBL document CHEMBL2311418, “Structure-activity relationships of antitubercular salicylanilides consistent with disruption of the proton gradient via proton shuttling” (Bioorg Med Chem, 2013)
In brackets after ≈: the same amount, converted by molar mass.

Key:
[1] = tested on: Mycobacterium tuberculosis; experiment: Antitubercular activity against Mycobacterium tuberculosis H37Rv ATCC27294 assessed as complete cessation of growth; format: functional; settings: H37Rv ATCC 27294
[2] = Cytotoxicity against mouse macrophage cell line J774.1 (ATCC TIB-67) for 3 days by Alamar Blue; format: cell-based; settings: 72 h

Structure (SMILES) | MIC [1] [µM] | IC50 [2] [µM]
O=C(Nc1cc(C(F)(F)F)cc(C(F)(F)F)c1)c1cc(Cl)ccc1OCc1ccccc1 | > 50 | > 60
CCOC(=O)c1cccc(NC(=O)c2cc(Cl)ccc2O)c1 | 13 (≈ 4.16 µg/mL) | 17
COc1cc(NC(=O)c2cc(Cl)ccc2O)c(Cl)cc1Cl | 13 (≈ 4.51 µg/mL) | 8
Cc1c(NC(=O)c2cc(Cl)ccc2O)cccc1C(F)(F)F | 3.1 (≈ 1.02 µg/mL) | 8
O=C(Nc1cc(F)c(F)c(F)c1)c1cc(Cl)ccc1O | 1.6 (≈ 0.483 µg/mL) | 4.7
O=C(Nc1cc(F)ccc1Cl)c1cc(Cl)ccc1O | 3.1 (≈ 0.93 µg/mL) | 3.2
O=C(Nc1cc(Cl)cc(Cl)c1)c1cc(Cl)ccc1O | 1.6 (≈ 0.507 µg/mL) | 3.1
Cc1cc(NS(=O)(=O)c2ccc(NC(=O)c3cc(Cl)ccc3O)cc2)no1 | > 50 | > 60
N#Cc1ccc(NC(=O)c2cc(Cl)ccc2O)cc1 | 13 (≈ 3.54 µg/mL) | 11
O=C(Nc1cc(F)c(F)cc1F)c1cc(Cl)ccc1O | 3.1 (≈ 0.935 µg/mL) | 6.2
COc1ccc(Cl)cc1C(=O)Nc1cc(C(F)(F)F)cc(C(F)(F)F)c1 | > 50 | > 60
O=C(Nc1cccc(C(F)(F)F)c1)c1cc(F)ccc1O | 6.3 (≈ 1.89 µg/mL) | 6.1
O=C(Nc1cc(C(F)(F)F)ccc1F)c1cc(Cl)ccc1O | 1.6 (≈ 0.534 µg/mL) | 2.6
Oc1ccc(Cl)cc1C(=S)Nc1cc(C(F)(F)F)cc(C(F)(F)F)c1 | 1.6 (≈ 0.64 µg/mL) | –
Cc1c(C(F)(F)F)cc(NC(=O)c2cc(Cl)ccc2O)cc1C(F)(F)F | 0.8 (≈ 0.318 µg/mL) | < 1.9
COc1cc(NC(=O)c2cc(Cl)ccc2O)cc(C(F)(F)F)c1 | 6.3 (≈ 2.18 µg/mL) | 18
Cc1c(NC(=O)c2cc(Cl)ccc2O)cc(C(F)(F)F)cc1C(F)(F)F | 3.1 (≈ 1.23 µg/mL) | 3.2
O=C(Nc1cc(C(F)(F)F)cc(C(F)(F)F)c1)c1cc(Cl)ccc1O [IMD-0354] | 3.1 (≈ 1.19 µg/mL) | 5.2
O=C(O)c1cccc(NC(=O)c2cc(Cl)ccc2O)c1 | > 50 | > 60
O=C(Nc1ccccc1S(=O)(=O)c1ccccc1)c1cc(Cl)ccc1O | > 50 | > 60
O=C(Nc1ccc(F)c(F)c1F)c1cc(Cl)ccc1O | 6.3 (≈ 1.9 µg/mL) | 6.7
O=C(Nc1cccc(Br)c1)c1cc(Cl)ccc1O | 6.3 (≈ 2.06 µg/mL) | 5.7
O=C(Nc1cc(C(F)(F)F)ccc1F)c1cc(F)ccc1O | 6.3 (≈ 2 µg/mL) | 5.1
COc1ccc(O)c(C(=O)Nc2cc(C(F)(F)F)cc(C(F)(F)F)c2)c1 | 6.3 (≈ 2.39 µg/mL) | 7.7

Structure (SMILES) | MIC [1] [µM] | IC50 [2] [µM]
O=C(Oc1cc(C(F)(F)F)cc(C(F)(F)F)c1)c1cc(Cl)ccc1O | > 50 | > 60
O=C(Nc1cc(C(F)(F)F)cc(C(F)(F)F)c1)c1ccccc1 | > 50 | –
O=C(Nc1cc(F)cc(F)c1)c1cc(Cl)ccc1O | 3.1 (≈ 0.879 µg/mL) | 6.1
O=C(Nc1cc(C(F)(F)F)cc(C(F)(F)F)c1)Nc1cc(Cl)ccc1O | ≥ 50 | 13
CC(=O)Oc1ccc(Cl)cc1C(=O)Nc1cc(C(F)(F)F)cc(C(F)(F)F)c1 | 1.6 (≈ 0.681 µg/mL) | > 60
O=C(Nc1cc(C(F)(F)F)cc(C(F)(F)F)c1)c1ccccc1O | 6.3 (≈ 2.2 µg/mL) | 12
O=C(Nc1ccc(F)cc1C(F)(F)F)c1cc(Cl)ccc1O | 6.3 (≈ 2.1 µg/mL) | 13
O=C(Nc1ccc(C(F)(F)F)cc1)c1cc(F)ccc1O | 3.1 (≈ 0.928 µg/mL) | 5.4
NC(=O)c1ccc(NC(=O)c2cc(Cl)ccc2O)cc1 | > 50 | > 60
O=C(Nc1cc(O)c(Cl)cc1Cl)c1cc(Cl)ccc1O | > 50 | 32
COc1ccc(C(F)(F)F)c(NC(=O)c2cc(Cl)ccc2O)c1 | 6.3 (≈ 2.18 µg/mL) | 4.8
O=C(Nc1cc(C(F)(F)F)ccc1C(F)(F)F)c1cc(Cl)ccc1O | 3.1 (≈ 1.19 µg/mL) | 6.6
O=C(NCc1cc(C(F)(F)F)cc(C(F)(F)F)c1)c1cc(Cl)ccc1O | 6.3 (≈ 2.51 µg/mL) | 27
Cc1cc(C)cc(NC(=O)c2cc(Cl)ccc2O)c1 | ≥ 50 | 21
O=C(Nc1ccc(F)cc1)c1cc(Cl)ccc1O | 13 (≈ 3.45 µg/mL) | 17
O=C(Nc1ccc(C(F)(F)F)cc1)c1cc(Cl)ccc1O | 1.6 (≈ 0.505 µg/mL) | 2.8
O=C(Nc1ccccc1)c1cccc(NC(=O)c2cc(Cl)ccc2O)c1 | > 50 | > 60
Cc1ccc(O)c(C(=O)Nc2cc(C(F)(F)F)cc(C(F)(F)F)c2)c1 | 6.3 (≈ 2.29 µg/mL) | 5.4
O=C(Nc1c(F)cccc1F)c1cc(Cl)ccc1O | > 50 | > 60
O=C(Nc1cc(C(F)(F)F)cc(C(F)(F)F)c1)c1cc(Cl)cc(Cl)c1O | 13 (≈ 5.44 µg/mL) | > 60
O=C(Nc1cccc(F)c1)c1cc(Cl)ccc1O | 6.3 (≈ 1.67 µg/mL) | 15
O=C(Nc1ccc(F)c(F)c1)c1cc(Cl)ccc1O | 3.1 (≈ 0.879 µg/mL) | 7.7
N#Cc1ccc(NC(=O)c2cc(Cl)ccc2O)cc1C(F)(F)F | 6.3 (≈ 2.15 µg/mL) | 5.8
O=C(Nc1cccc(F)c1F)c1cc(Cl)ccc1O | 13 (≈ 3.69 µg/mL) | 13

Structure (SMILES) | MIC [1] [µM] | IC50 [2] [µM]
O=C(Nc1cc(C(F)(F)F)cc(C(F)(F)F)c1)c1cccc(Cl)c1 | > 50 | > 60
O=C(Nc1cc(Br)ccc1C(F)(F)F)c1cc(Cl)ccc1O | 1.6 (≈ 0.631 µg/mL) | 5.8
O=C(Nc1cc([N+](=O)[O-])ccc1F)c1cc(Cl)ccc1O | 6.3 (≈ 1.96 µg/mL) | 8.5
O=S(=O)(Nc1cc(C(F)(F)F)cc(C(F)(F)F)c1)c1cc(Cl)ccc1O | ≥ 50 | 23
COc1ccc(NC(=O)c2cc(Cl)ccc2O)cc1 | > 50 | > 60
O=C(Nc1cc(Cl)c(Cl)c(Cl)c1)c1cc(Cl)ccc1O | 1.6 (≈ 0.562 µg/mL) | 5.4
O=C(Nc1ccc(N2CCOCC2)cc1)c1cc(Cl)ccc1O | > 50 | –
O=C(Nc1cc(C(F)(F)F)ccc1Br)c1cc(Cl)ccc1O | 0.8 (≈ 0.316 µg/mL) | 2.9
NC(=O)c1cccc(NC(=O)c2cc(Cl)ccc2O)c1 | > 50 | > 60
O=C(Nc1cc(F)cc(F)c1)c1cc(F)ccc1O | 6.3 (≈ 1.68 µg/mL) | 9.6
O=C(Nc1ccc(Br)cc1C(F)(F)F)c1cc(Cl)ccc1O | 6.3 (≈ 2.49 µg/mL) | 11
O=C(Nc1ccc(S(=O)(=O)Nc2ccccc2)cc1)c1cc(Cl)ccc1O | > 50 | > 60
O=C(Nc1ccc(F)cc1F)c1cc(Cl)ccc1O | 13 (≈ 3.69 µg/mL) | 8.5
O=C(Nc1cc(Cl)ccc1O)c1cc(C(F)(F)F)cc(C(F)(F)F)c1 | > 50 | 12
O=C(Nc1cccc(C(F)(F)F)c1F)c1cc(Cl)ccc1O | 3.1 (≈ 1.03 µg/mL) | 5.3
Cc1ccc(NC(=O)c2cc(Cl)ccc2O)cc1I | 6.3 (≈ 2.44 µg/mL) | 6.3
O=C(Nc1cc(C(F)(F)F)cc(C(F)(F)F)c1)c1ccccc1Cl | > 50 | > 1.7
O=C(Nc1ccc(F)c(C(F)(F)F)c1)c1cc(Cl)ccc1O | 1.6 (≈ 0.534 µg/mL) | 5.3
O=C(Nc1ccc(F)c(Cl)c1)c1cc(Cl)ccc1O | 3.1 (≈ 0.93 µg/mL) | 4.4
CC(C)(C)c1cc(NC(=O)c2cc(Cl)ccc2O)cc(C(C)(C)C)c1 | 6.3 (≈ 2.27 µg/mL) | 4.1
O=C(Nc1cc(C(F)(F)F)cc(C(F)(F)F)c1)c1cccc(O)c1O | > 50 | 1.7
O=C(Nc1cc(C(F)(F)F)cc(C(F)(F)F)c1)c1cc([N+](=O)[O-])ccc1O | ≥ 50 | > 60
O=C(Nc1ccccc1)c1cc(Cl)ccc1O | 13 (≈ 3.22 µg/mL) | 22
O=C(Nc1ccc(C(F)(F)F)c(C(F)(F)F)c1)c1cc(Cl)ccc1O | 0.8 (≈ 0.307 µg/mL) | 4.9

Structure (SMILES) | MIC [1] [µM] | IC50 [2] [µM]
O=C(Nc1ccc(OC(F)(F)F)cc1)c1cc(Cl)ccc1O | 3.1 (≈ 1.03 µg/mL) | 7.3
O=C(Nc1cccc(C(F)(F)F)c1C(F)(F)F)c1cc(Cl)ccc1O | 6.3 (≈ 2.42 µg/mL) | 8.1
O=C(Nc1cc(C(F)(F)F)cc(C(F)(F)F)c1)c1cc(I)ccc1O | 6.3 (≈ 2.99 µg/mL) | 5.6
CC(C)(C)c1ccc(NC(=O)c2cc(Cl)ccc2O)cc1 | 13 (≈ 3.95 µg/mL) | 19
O=C(Nc1ccc(Br)c(C(F)(F)F)c1)c1cc(Cl)ccc1O | 3.1 (≈ 1.22 µg/mL) | 4.5
Oc1ccc(Cl)cc1CNc1cc(C(F)(F)F)cc(C(F)(F)F)c1 | ≥ 50 | 7.8
O=C(Nc1cc(F)c(Br)c(F)c1)c1cc(Cl)ccc1O | 1.6 (≈ 0.58 µg/mL) | 4.3
Nc1ccc(Cl)cc1C(=O)Nc1cc(C(F)(F)F)cc(C(F)(F)F)c1 | > 50 | > 60
O=C(Nc1ccc(Oc2ccccc2)cc1)c1cc(Cl)ccc1O | 13 (≈ 4.42 µg/mL) | 43
O=C(Nc1ccccc1C(F)(F)F)c1cc(Cl)ccc1O | – | 19
O=C(Nc1ccc(Cl)c(C(F)(F)F)c1)c1cc(Cl)ccc1O | 1.6 (≈ 0.56 µg/mL) | 4.5
O=C(Nc1cc(C(F)(F)F)ccc1Cl)c1cc(Cl)ccc1O | 1.6 (≈ 0.56 µg/mL) | 3.5
N#Cc1cccc(NC(=O)c2cc(Cl)ccc2O)c1 | 25 (≈ 6.82 µg/mL) | 10
O=C(Nc1cc(C(F)(F)F)cc(C(F)(F)F)c1)c1cc(F)ccc1O | 3.1 (≈ 1.14 µg/mL) | 2.5
O=C(Nc1c(Cl)cccc1C(F)(F)F)c1cc(Cl)ccc1O | > 50 | 23
O=C(Nc1cc(C(F)(F)F)cc(C(F)(F)F)c1)c1cc(Br)ccc1O | 6.3 (≈ 2.7 µg/mL) | 4.9
O=C(Nc1cc(C(F)(F)F)ccc1Cl)c1cc(F)ccc1O | 3.1 (≈ 1.03 µg/mL) | 6.1
O=C(Nc1cc(Br)cc(C(F)(F)F)c1)c1cc(F)ccc1O | 3.1 (≈ 1.17 µg/mL) | 4.7
O=C(Nc1cc(C(F)(F)F)cc(C(F)(F)F)c1)c1cc(-n2cccc2)ccc1O | 3.1 (≈ 1.28 µg/mL) | 3.1
O=C(Nc1ccccc1)c1ccc(NC(=O)c2cc(Cl)ccc2O)cc1 | > 50 | > 60
O=C(Nc1cccc(C(F)(F)F)c1)c1cc(Cl)ccc1O | 3.1 (≈ 0.979 µg/mL) | 5.9
O=C(Nc1ccc(C(F)(F)F)cc1Cl)c1cc(Cl)ccc1O | 0.8 (≈ 0.28 µg/mL) | 2.4
